According to PMC12040169 (PLOS Biology, 2025):

test: in vitro; conditions: human, hela cells, % viability

SMILES | viability at 28.5 h, 10 µM [%]
CN(C)CCN1C(=O)C(O)=C(C(=O)c2ccc(S(=O)(=O)N3CCOCC3)cc2)C1c1ccc(Br)cc1 (stereo not drawn) [CBK264693] | 93.5
CC1CC(C)CN(C(=O)Cn2c(-c3nonc3N)nc3ccccc32)C1 (stereo not drawn) [CBK264694] | 89.7
O=C(C1=C(O)C(=O)N(Cc2cccnc2)C1c1cccc(Oc2ccccc2)c1)c1ccc(Cl)cc1 (stereo not drawn) [CBK264698] | 86.6
O=C(Cn1c(-c2cncs2)nc2ccccc21)NCc1ccc2c(c1)OCO2 [CBK264699] | 95.5
CN(C)S(=O)(=O)c1ccc(C(=O)C2=C(O)C(=O)N(CCN3CCCCC3)C2c2cccnc2)cc1 (stereo not drawn) [CBK264700] | 99.9
Cc1ccccc1OCC(=O)Oc1ccc(-c2cnc3ccccc3n2)cc1 [CBK264703] | 100
COc1cc(C(=O)Nc2cc(-c3nc4ncccc4o3)ccc2C)ccc1OCc1ccc(Cl)cc1 [CBK264704] | 112
O=C(Cn1c(-c2cncs2)nc2ccccc21)NCc1ccccc1 [CBK264705] | 103
O=S(=O)(NC1c2cccc3cccc(c23)C1Sc1ncccn1)c1ccccc1 (stereo not drawn) [CBK264706] | 103
Cn1cnnc1SC1c2cccc3cccc(c23)C1NS(=O)(=O)c1ccc(Cl)cc1 (stereo not drawn) [CBK264707] | 98.2
Cc1ccc(OC(=O)CCC(=O)Nc2ccc(S(N)(=O)=O)cc2)cc1 [CBK264708] | 95.1
CN(C)S(=O)(=O)c1ccc(C(=O)C2=C(O)C(=O)N(Cc3cccnc3)C2c2ccncc2)cc1 (stereo not drawn) [CBK264714] | 95.4
O=C(CC1Sc2ccccc2NC1=O)Nc1ccc([N+](=O)[O-])c(F)c1 (stereo not drawn) [CBK264717] | 85.5
Cc1cc(C(=O)Nc2nnc[nH]2)ccc1[N+](=O)[O-] [CBK264719] | 99.7
COc1ccc(CN2CCC(N3CCN(c4ccccc4F)CC3)CC2)cc1OCc1ccccc1 [CBK264720G] | 105
COc1ccc(CN2CCC(N3CCCCCC3)CC2)cc1OC [CBK264721G] | 90.8
CC(NC(=O)c1c(Cl)c(Cl)c(Cl)c(Cl)c1C(=O)O)c1cccs1 (stereo not drawn) [CBK264722] | 107
COc1ccc(C(=O)C2=C(O)C(=O)N(CCCN(C)C)C2c2ccc(Cl)c(Cl)c2)cc1 (stereo not drawn) [CBK264723] | 94.4
COc1ccc(Cl)cc1NC(=O)CN(c1cc(C(F)(F)F)ccc1Cl)S(C)(=O)=O [CBK264724] | 82.5
Cc1ccc(NC(=O)CN2C(=O)S/C(=C\c3cc(C)n(-c4cccc(C(=O)O)c4)c3C)C2=O)cc1 [CBK264725] | 89.9
Cc1ccc(S(=O)(=O)N(CC(=O)Nc2ccccc2C)Cc2ccc(Cl)c(Cl)c2)cc1 [CBK264735] | 93.3

SMILES | viability at 28.5 h, 10 µM [%]
Cc1ccc2nc(-c3ccccc3)c(CN3CCCC3)c(O)c2c1 [CBK264736] | 106
COc1ccccc1N(CC(=O)Nc1ccc2c(c1)oc1ccccc12)S(=O)(=O)c1ccccc1 [CBK264737] | 87.8
Cc1ccc(N(CC(O)CN2CCCC2)S(=O)(=O)c2ccccc2)cc1 (stereo not drawn) [CBK264739] | 101
CCNC(=S)N1CCN(CCNC=C2C(=O)CC(c3ccco3)CC2=O)CC1 (stereo not drawn) [CBK264742] | 91.7
O=C(/C=C/C=C/c1ccccc1)CC1(O)C(=O)N(Cc2cccc3ccccc23)c2ccccc21 (stereo not drawn) [CBK264744] | 93.6
CC(=O)Nc1ccc(S(=O)(=O)Nc2ccc(S(=O)(=O)Nc3cc(C)ccc3C)cc2)cc1 [CBK264745] | 98.4
CCCn1c(=N)n(CCOc2cccc(C)c2)c2ccccc21 [CBK264746B] | 89.2
COc1ccc(OC)c(C2C(C(=O)c3ccccc3)=C(O)C(=O)N2CCN2CCOCC2)c1 (stereo not drawn) [CBK264748] | 114
Cc1ncc([N+](=O)[O-])n1CCSc1nnc(SCc2ccccc2)s1 [CBK264751] | 86.4
Cc1n[nH]c(O)c1C(c1cccc([N+](=O)[O-])c1)c1c(C)n[nH]c1O [CBK264753] | 97.8
O=C(O)CCc1ccc(-c2ccc(F)cc2)n1-c1cc(Cl)ccc1Cl [CBK264754] | 111
CCOC(=O)c1cnc2c(C)cc(C)cc2c1NCCN1CCOCC1 [CBK264757] | 109
CC(=O)Nc1cccc(NC(=O)CSc2ccc(C(F)(F)F)cc2[N+](=O)[O-])c1 [CBK264758] | 103
CC(C)(C)c1ccc(S(=O)(=O)N/N=C\c2ccc(Cl)cc2Cl)cc1 [CBK264759] | 84.6
COc1ccc(C2CC(=O)C(=CNCCN3CCN(C(=O)c4ccccc4)CC3)C(=O)C2)cc1 (stereo not drawn) [CBK264762] | 104
CC(=O)Nc1ccc(S(=O)(=O)N2CCN(c3ccc([N+](=O)[O-])c(N4CCOCC4)c3)CC2)cc1 [CBK264764] | 109
CC(Nc1nc(-c2ccc([N+](=O)[O-])cc2)nc2ccccc12)c1ccccc1 (stereo not drawn) [CBK264767] | 88.3
Cc1cc(/C=C(/C#N)c2nc3ccccc3[nH]2)c(C)n1-c1ccc(S(N)(=O)=O)cc1 [CBK264769] | 77.8
CC(=O)NS(=O)(=O)c1ccc(-c2ccc(/C=C(/C#N)c3nc4ccc(C)cc4[nH]3)o2)cc1 [CBK264771] | 109
O=[N+]([O-])c1ccc(N2CCN(S(=O)(=O)N3CCCC3)CC2)c(Cl)c1 [CBK264772] | 102
CCN(CC)S(=O)(=O)c1ccc(OC)c(NC(=O)C2c3ccccc3Oc3ccccc32)c1 [CBK264774] | 101

SMILES | viability at 28.5 h, 10 µM [%]
CC1(C)CC(=O)C(C(=S)Nc2ccc(F)cc2)=C(NCc2ccc3c(c2)OCO3)C1 [CBK264779] | 97.5
O=C(O)CCc1ccc(-c2cccs2)n1NC(=O)c1sc2ccccc2c1Cl [CBK264782] | 96.1
CCCc1cc(=O)oc2cc(OCc3ccc(C(=O)O)o3)ccc12 [CBK264786] | 108
O=[N+]([O-])c1ccc(-c2nc(NCc3cccnc3)c3ccccc3n2)cc1 [CBK264788] | 100
O=C(COC(=O)C1CCC(N2C(=O)c3ccccc3C2=O)CC1)c1ccc(-c2ccccc2)cc1 (stereo not drawn) [CBK264789] | 90.4
CCOc1ccccc1-n1c(CCC(=O)O)ccc1-c1cccs1 [CBK264794] | 105
O=[N+]([O-])c1ccccc1S(=O)(=O)Nc1ccc(S(=O)(=O)Nc2ccccc2)cc1 [CBK264796] | 106
CCOC(=O)c1cnc2c(C)cc(Cl)cc2c1NCCN(C)C [CBK264800] | 90.7
Cc1cc(Cl)ccc1OCC(=O)NC(=S)Nc1cccc(-c2nc3ccccc3s2)c1 [CBK264802] | 105
Cc1ccc(NC(=O)C(=O)NCCCN2CCOCC2)cc1Cl [CBK264806] | 97.4
COc1ccc(C(=O)COC(=O)c2cccc(N3C(=O)C4C5C=C(C)C(C5)C4C3=O)c2)cc1 (stereo not drawn) [CBK264808] | 94.1
Cc1ccc(NS(=O)(=O)c2ccc(NC(=O)c3ccc(CN4CCOCC4)cc3)cc2)c(C)c1 [CBK264815] | 94.5
COCCNc1nc(-c2ccc([N+](=O)[O-])cc2)nc2ccccc12 [CBK264819] | 109
Cc1ccc(-c2ccc(CCC(=O)O)[nH]2)cc1 [CBK264820] | 109
Cc1ccccc1OCC(O)CNC(=O)c1ccccc1C(=O)O (stereo not drawn) [CBK264824] | 94.8
O=[N+]([O-])c1ccc(N2CCN(S(=O)(=O)c3ccc4ccccc4c3)CC2)c(C(F)(F)F)c1 [CBK264827] | 103
O=C(Nc1cccc(NC(=S)NC(=O)c2ccc(Cl)cc2Cl)c1)c1ccccc1F [CBK264828] | 107
COc1ccccc1N(CC(O)CN1CCCC1)S(=O)(=O)c1ccccc1 (stereo not drawn) [CBK264829] | 114
Cn1c(-c2c(CCC(=O)O)oc3cc(O)ccc3c2=O)nc2ccccc21 [CBK264831] | 96
Cc1ccccc1N1CCN(C(=O)c2c(C)oc3cc4c(C(=O)N5CCN(c6ccccc6C)CC5)c(C)oc4cc23)CC1 [CBK264833] | 89.2
NS(=O)(=O)c1ccc(NC(=O)CN2C(=O)S/C(=C\C=C\c3ccccc3)C2=O)cc1 [CBK264835] | 94.6

SMILES | viability at 28.5 h, 10 µM [%]
Cc1ccc(NC(=O)C(=O)NCCCN2CCOCC2)cc1C [CBK264836] | 106
O=C(O)CCSc1nc(-c2ccccc2)c(-c2ccccc2)n1-c1ccccc1 [CBK264837] | 113
CCc1cc2c(=O)c(-c3nc(C)cs3)c(CCC(=O)O)oc2cc1O [CBK264838] | 108
Cc1cccc(C(=O)Nc2c(C(=O)Nc3ccc(Br)cc3)cnn2-c2ccccc2)c1 [CBK264839] | 113
CC(C)c1ccccc1OCC(=O)OCCN1C(=O)c2ccccc2C1=O [CBK264841] | 92.2
O=C(CN(C1CCCCC1)S(=O)(=O)c1ccc(Br)cc1)NCc1ccccn1 [CBK264846] | 93.6
[O-][n+]1cc(-c2ccccc2)[n+]([O-])c2c1CCCC2 [CBK264847] | 98.7
Cc1cccc(C)c1NC(=O)C(=O)NCCCN1CCOCC1 [CBK264850] | 90.6
CN1CCN(C(=O)Nc2ccc(Cc3ccc(NC(=O)N4CCN(C)CC4)cc3)cc2)CC1 [CBK264852] | 104
Cc1cc(C)c(NC(=O)CSCC(=O)Nc2ccc3ccccc3c2)c(C)c1 [CBK264856] | 100
O=C(CN1C(=O)C2C3c4ccccc4C(c4ccccc43)C2C1=O)OCC(=O)c1ccc(F)cc1 (stereo not drawn) [CBK264861] | 106
COc1cccc(C2C(C(=O)c3ccc(Br)cc3)=C(O)C(=O)N2CCCN2CCOCC2)c1 (stereo not drawn) [CBK264862] | 103
O=S(=O)(c1ccc(F)cc1)N1CCN(c2ncnc3scc(-c4ccccc4)c23)CC1 [CBK264864] | 103
COc1ccc(C(=O)C2=C(O)C(=O)N(CCN(C)C)C2c2ccncc2)c(C)c1 (stereo not drawn) [CBK264867] | 92.5
OCCCNC(=S)NCCc1ccccc1 [CBK264869] | 99.7
Cc1ccc(NC(=S)NCCc2ccc(S(N)(=O)=O)cc2)c(C)c1 [CBK264870] | 93.9
COc1cc(C2C(C(=O)c3cccs3)=C(O)C(=O)N2Cc2cccnc2)cc(OC)c1OC (stereo not drawn) [CBK264874] | 92.8
COCCCN1C(=O)C(O)=C(C(=O)c2ccc(C)o2)C1c1ccc(Br)cc1 (stereo not drawn) [CBK264876] | 90.9
